# Measurements published in EP4692062A1, “NOVEL AMIDE-BASED COMPOUND AND COMPOSITION COMPRISING SAME” (Amorepacific Corporation, priority 2023, dated 2024).
# How the values were obtained:
# Format in all cases: biochemical
# MMP-1 = target: T1, MMP-1 (Homo sapiens, UniProt P03956); assay: MMP1 Inhibitor Screening Assay Kit (ab139443), colorimetric thiopeptide substrate, OD412; conditions: for remaining activity at 0.5 µM / remaining activity at 10 µM: remaining enzyme activity; for remaining activity at 0.5 µM: untreated group = 100%, compound at 0.5 uM, n=2; for inhibition at 10 µM / remaining activity at 10 µM: T-05~20 at 10 uM; for inhibition at 10 µM: read-out: MMP-1 (%) (inhibitory efficacy, high concentration); for remaining activity at 10 µM: read-out: MMP-1 (%) (enzyme activity, high concentration)
# T1 construct: purchased Abchem (so in the source)
# T1 sequence (P03956 100-269 limits assumed): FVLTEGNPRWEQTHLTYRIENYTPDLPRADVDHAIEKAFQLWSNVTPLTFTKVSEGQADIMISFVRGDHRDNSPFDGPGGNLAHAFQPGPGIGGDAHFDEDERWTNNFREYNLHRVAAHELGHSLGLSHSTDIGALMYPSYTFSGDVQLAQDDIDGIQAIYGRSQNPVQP
# Protocol: Enzyme activity (%) at the same concentration was compared with treatment with 0.5 µM MMP-1 activity and 50 nM MMP-2 and MMP-9 activity (n=2). Here, enzyme activity (%) refers to the enzyme activity (%) of the experimental group when the untreated group is considered to have 100% enzyme activity.
# To evaluate the effect of the new compound on the enzyme activity, the color change was measured by following the provided protocol using a kit sold by Abchem as follows.
# As MMP activity increases, the substrate is decomposed and the OD412 level increases. Therefore, the change in OD412 level (OD value) per minute was measured and the value was obtained according to the enzyme activity calculation formula below. […] (ε=13,600 M^-1cm^-1 above pH 6.0)
# New compound enzyme activity(%) = (Vnew compound/Vuntreated group)*100 [formula] V = change in OD value per minute
# MMP-2 [1] = target: T2, MMP-2 (Homo sapiens, UniProt P08253); assay: MMP2 Inhibitor Screening Assay Kit (ab139446), colorimetric thiopeptide substrate, OD412; conditions: remaining enzyme activity, untreated group = 100%; compound at 50 nM; n=2
# T2 construct: purchased Abchem (so in the source)
# T2 sequence (P08253 110-660): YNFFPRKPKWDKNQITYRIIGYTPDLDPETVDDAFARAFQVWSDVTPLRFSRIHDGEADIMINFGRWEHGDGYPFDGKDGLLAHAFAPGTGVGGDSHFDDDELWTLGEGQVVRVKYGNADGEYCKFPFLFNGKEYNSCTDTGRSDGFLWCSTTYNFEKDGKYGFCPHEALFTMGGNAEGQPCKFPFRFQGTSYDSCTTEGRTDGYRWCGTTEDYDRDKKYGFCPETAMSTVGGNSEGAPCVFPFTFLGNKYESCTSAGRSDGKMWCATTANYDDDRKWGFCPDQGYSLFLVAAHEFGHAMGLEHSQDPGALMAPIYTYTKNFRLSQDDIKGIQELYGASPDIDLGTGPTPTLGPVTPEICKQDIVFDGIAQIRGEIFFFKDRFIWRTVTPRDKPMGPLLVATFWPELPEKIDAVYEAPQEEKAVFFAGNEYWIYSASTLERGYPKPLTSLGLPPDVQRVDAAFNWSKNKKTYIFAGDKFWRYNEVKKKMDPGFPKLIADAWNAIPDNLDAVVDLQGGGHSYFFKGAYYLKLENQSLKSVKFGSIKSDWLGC
# Protocol: Enzyme activity (%) at the same concentration was compared with treatment with 0.5 µM MMP-1 activity and 50 nM MMP-2 and MMP-9 activity (n=2). Here, enzyme activity (%) refers to the enzyme activity (%) of the experimental group when the untreated group is considered to have 100% enzyme activity. To evaluate the effect of the new compound on the enzyme activity, the color change was measured by following the provided protocol using a kit sold by Abchem as follows. […] Therefore, the change in OD412 level (OD value) per minute was measured and the value was obtained according to the enzyme activity calculation formula below. […] (ε=13,600 M^-1cm^-1 above pH 6.0) New compound enzyme activity(%) = (Vnew compound/Vuntreated group)*100 [formula] V = change in OD value per minute
# MMP-9 = target: T3, MMP-9 (Homo sapiens, UniProt P14780); assay: MMP9 Inhibitor Screening Assay Kit (ab139448), colorimetric thiopeptide substrate, OD412; conditions: compound at 50 nM; for remaining activity at 0.05 µM: remaining enzyme activity, untreated group = 100%, n=2; for inhibition at 0.05 µM: read-out: MMP-9 (%) at 50 nM (inhibitory activity)
# T3 construct: purchased Abchem (so in the source)
# T3 sequence (P14780 94-707): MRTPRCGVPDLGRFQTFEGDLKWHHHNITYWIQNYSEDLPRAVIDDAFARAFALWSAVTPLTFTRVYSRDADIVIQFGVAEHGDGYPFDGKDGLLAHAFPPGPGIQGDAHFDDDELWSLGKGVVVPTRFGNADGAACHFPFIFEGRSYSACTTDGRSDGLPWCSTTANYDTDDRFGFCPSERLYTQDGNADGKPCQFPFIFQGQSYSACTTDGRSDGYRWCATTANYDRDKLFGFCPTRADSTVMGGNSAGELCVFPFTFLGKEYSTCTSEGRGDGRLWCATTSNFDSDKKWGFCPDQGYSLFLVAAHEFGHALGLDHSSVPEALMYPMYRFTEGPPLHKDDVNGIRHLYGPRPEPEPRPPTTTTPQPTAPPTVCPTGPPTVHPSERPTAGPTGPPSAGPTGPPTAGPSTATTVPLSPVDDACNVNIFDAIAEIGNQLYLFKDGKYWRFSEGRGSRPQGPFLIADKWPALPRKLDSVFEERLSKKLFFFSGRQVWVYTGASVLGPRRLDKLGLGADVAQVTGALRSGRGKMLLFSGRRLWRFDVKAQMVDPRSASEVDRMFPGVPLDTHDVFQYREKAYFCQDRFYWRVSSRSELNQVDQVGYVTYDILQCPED
# Protocol: Enzyme activity (%) at the same concentration was compared with treatment with 0.5 µM MMP-1 activity and 50 nM MMP-2 and MMP-9 activity (n=2). Here, enzyme activity (%) refers to the enzyme activity (%) of the experimental group when the untreated group is considered to have 100% enzyme activity. To evaluate the effect of the new compound on the enzyme activity, the color change was measured by following the provided protocol using a kit sold by Abchem as follows. Enzyme activity was obtained by comparing absorbance per minute with the untreated group. • MMP1 Inhibitor Screening Assay Kit (ab139443) • MMP2 Inhibitor Screening Assay Kit (ab139446) • MMP9 Inhibitor Screening Assay Kit (ab139448) As MMP activity increases, the substrate is decomposed and the OD412 level increases. Therefore, the change in OD412 level (OD value) per minute was measured and the value was obtained according to the enzyme activity calculation formula below. Here, OD412 means optical density or absorbance at 412 nm. • Thiopeptide (Ac-PLG-[2-mercapto-4-methyl-pentanoyl]-LG-OC2H5) as a chromogenic substrate. • The MMP cleavage site peptide bond was replaced by the thioester bond of the thiopeptide. • Hydrolysis of this bond by MMP generates a sulfhydryl group, which reacts with DTNB [5,5'-dithiobis(2-nitrobenzoic acid), Ellman's reagent] to form 2-nitro-5-thiobenzoic acid. , which can be measured by its absorbance at 412 nm. (ε=13,600 M^-1cm^-1 above pH 6.0) New compound enzyme activity(%) = (Vnew compound/Vuntreated group)*100 [formula] V = change in OD value per minute
# MMP-2 [2] = target: T2, MMP-2; assay: MMP2 Inhibitor Screening Assay Kit (ab139446), colorimetric thiopeptide substrate, OD412; conditions: T-05~20 at 10 uM; for inhibition at 10 µM: read-out: MMP-2 (%) (inhibitory efficacy, high concentration); for remaining activity at 10 µM: remaining enzyme activity, read-out: MMP-2 (%) (enzyme activity, high concentration)
remaining activity at 0.5 µM (MMP-1) [%],remaining activity at 0.05 µM (MMP-2 [1]) [%],remaining activity at 0.05 µM (MMP-9) [%],inhibition at 10 µM (MMP-1) [%],remaining activity at 10 µM (MMP-1) [%],inhibition at 10 µM (MMP-2 [2]) [%],remaining activity at 10 µM (MMP-2 [2]) [%],Compound,inhibition at 0.05 µM (MMP-9) [%]
,,41.9,,,,,"O=C(NO)C1CCCCN1S(=O)(=O)c1ccc(-c2ccccc2)cc1 (centres unmarked) [T-02, 1-([1,1'-biphenyl]-4-ylsulfonyl)-N-hydroxypiperidine-2-carboxamide]",
100,100,100,12.8,87.2,0,100,"CC(C)(C)c1ccc(S(=O)(=O)NC(Cc2ccccc2)C(=O)NO)cc1 (centres unmarked) [T-08, 2-((4-(tert-butyl)phenyl)sulfonamido)-N-hydroxy-3-phenylpropanamide]",
100,82.7,100,42.9,57.1,93.8,6.2,"O=C(NO)C(Cc1ccccc1)NS(=O)(=O)c1ccc2ccccc2c1 (centres unmarked) [T-11, N-hydroxy-2-(naphthalene-2-sulfonamido)-3-phenylpropanamide]",
,,70.6,,,,,"CC(C)CC(NS(=O)(=O)c1ccc(-c2ccccc2)cc1)C(=O)NO (centres unmarked) [T-12, 2-([1,1'-biphenyl]-4-sulfonamido)-N-hydroxy-4-methylpentanamide]",
100,100,100,0,100,71.9,28.1,"CC(C)CC(NS(=O)(=O)c1ccc(C(C)(C)C)cc1)C(=O)NO (centres unmarked) [T-13, 2-((4-(tert-butyl)phenyl)sulfonamido)-N-hydroxy-4-methylpentanamide]",
98.2,100,97.4,,,,,"CC(C)CC(NS(=O)(=O)c1ccccc1)C(=O)NO (centres unmarked) [T-36, N-hydroxy-4-methyl-2-(phenylsulfonamido)pentanamide]",

# Continued, molecule first:
Compound,remaining activity at 0.5 µM (MMP-1) [%],remaining activity at 0.05 µM (MMP-2 [1]) [%],remaining activity at 0.05 µM (MMP-9) [%],inhibition at 10 µM (MMP-1) [%],remaining activity at 10 µM (MMP-1) [%],inhibition at 10 µM (MMP-2 [2]) [%],remaining activity at 10 µM (MMP-2 [2]) [%],inhibition at 0.05 µM (MMP-9) [%]
"O=C(NO)C1CCCCN1S(=O)(=O)c1ccccc1 (centres unmarked) [T-01, N-hydroxy-1-(phenylsulfonyl)piperidine-2-carboxamide]",34.2,81.6,79.1,,,,,
"CCCCOc1ccc(S(=O)(=O)N2CCCCC2C(=O)NO)cc1 (centres unmarked) [T-04, 1-((4-butoxyphenyl)sulfonyl)-N-hydroxypiperidine-2-carboxamide]",,,0,,,,,
"Cc1cc(C)c(S(=O)(=O)N2CCCCC2C(=O)NO)c(C)c1 (centres unmarked) [T-05, N-hydroxy-1-(mesitylsulfonyl)piperidine-2-carboxamide]",100,100,100,8.3,91.7,15.8,84.2,
"Cc1cc(C)c(S(=O)(=O)NC(Cc2ccccc2)C(=O)NO)c(C)c1 (centres unmarked) [T-10, N-hydroxy-3-phenyl-2-((2,4,6-trimethylphenyl)sulfonamido)propanamide]",100,95.6,100,0,100,15.5,84.5,
"CCCCOc1ccc(S(=O)(=O)NC(CC(C)C)C(=O)NO)cc1 (centres unmarked) [T-14, 2-((4-butoxyphenyl)sulfonamido)-N-hydroxy-4-methylpentanamide]",100,0,73.5,,,,,26.5
"Cc1cc(C)c(S(=O)(=O)NC(CC(C)C)C(=O)NO)c(C)c1 (centres unmarked) [T-15, N-hydroxy-4-methyl-2-((2,4,6-trimethylphenyl)sulfonamido)pentanamide]",100,100,100,0,100,34.8,65.2,
"CC(C)C(NS(=O)(=O)c1ccc(C(C)(C)C)cc1)C(=O)NO (centres unmarked) [T-18, 2-((4-(tert-butyl)phenyl)sulfonamido)-N-hydroxy-3-methylbutanamide]",100,99.9,100,0,100,0,100,
"Cc1cc(C)c(S(=O)(=O)NC(C(=O)NO)C(C)C)c(C)c1 (centres unmarked) [T-20, N-hydroxy-3-methyl-2-((2,4,6-trimethylphenyl)sulfonamido)butanamide]",100,97.8,100,0,100,59.9,40.1,0
"O=C(NO)C1CCCCN1S(=O)(=O)c1ccc(F)cc1 (centres unmarked) [T-21, 1-((4-fluorophenyl)sulfonyl)-N-hydroxypiperidine-2-carboxamide]",9.2,81.1,100,,,,,
"CCCc1ccc(S(=O)(=O)N2CCCCC2C(=O)NO)cc1 (centres unmarked) [T-24, N-hydroxy-1-((4-propylphenyl)sulfonyl)piperidine-2-carboxamide]",78.4,57.7,99,,,,,
"CCCCOc1ccc(S(=O)(=O)N2CCCC2C(=O)NO)cc1 (centres unmarked) [T-29, 1-((4-butoxyphenyl)sulfonyl)-N-hydroxypyrrolidine-2-carboxamide]",100,18.9,50.2,,,,,
"CC(=NO)c1ccc(S(=O)(=O)N2CCCCC2C(=O)NO)cc1 (centres unmarked) [T-35, N-hydroxy-1-((4-(1-(hydroxyimino)ethyl)phenyl)sulfonyl)piperidine-2-carboxamide]",,,19.9,,,,,
"CC(=O)Nc1ccc(S(=O)(=O)N2CCCC2C(=O)NO)cc1 (centres unmarked) [T-40, 1-((4-acetamidophenyl)sulfonyl)-N-hydroxypyrrolidine-2-carboxamide]",100,100,100,,,,,
